{"source": "patent US20090012103A1", "about": "“SUBSTITUTED HETEROCYCLIC COMPOUNDS” (priority 2007, published 2009)", "data": [{"target": "wild-type human cardiac sodium channel, hNav1.5 (Homo sapiens, UniProt Q14524)", "sequence (Q14524 whole entry)": "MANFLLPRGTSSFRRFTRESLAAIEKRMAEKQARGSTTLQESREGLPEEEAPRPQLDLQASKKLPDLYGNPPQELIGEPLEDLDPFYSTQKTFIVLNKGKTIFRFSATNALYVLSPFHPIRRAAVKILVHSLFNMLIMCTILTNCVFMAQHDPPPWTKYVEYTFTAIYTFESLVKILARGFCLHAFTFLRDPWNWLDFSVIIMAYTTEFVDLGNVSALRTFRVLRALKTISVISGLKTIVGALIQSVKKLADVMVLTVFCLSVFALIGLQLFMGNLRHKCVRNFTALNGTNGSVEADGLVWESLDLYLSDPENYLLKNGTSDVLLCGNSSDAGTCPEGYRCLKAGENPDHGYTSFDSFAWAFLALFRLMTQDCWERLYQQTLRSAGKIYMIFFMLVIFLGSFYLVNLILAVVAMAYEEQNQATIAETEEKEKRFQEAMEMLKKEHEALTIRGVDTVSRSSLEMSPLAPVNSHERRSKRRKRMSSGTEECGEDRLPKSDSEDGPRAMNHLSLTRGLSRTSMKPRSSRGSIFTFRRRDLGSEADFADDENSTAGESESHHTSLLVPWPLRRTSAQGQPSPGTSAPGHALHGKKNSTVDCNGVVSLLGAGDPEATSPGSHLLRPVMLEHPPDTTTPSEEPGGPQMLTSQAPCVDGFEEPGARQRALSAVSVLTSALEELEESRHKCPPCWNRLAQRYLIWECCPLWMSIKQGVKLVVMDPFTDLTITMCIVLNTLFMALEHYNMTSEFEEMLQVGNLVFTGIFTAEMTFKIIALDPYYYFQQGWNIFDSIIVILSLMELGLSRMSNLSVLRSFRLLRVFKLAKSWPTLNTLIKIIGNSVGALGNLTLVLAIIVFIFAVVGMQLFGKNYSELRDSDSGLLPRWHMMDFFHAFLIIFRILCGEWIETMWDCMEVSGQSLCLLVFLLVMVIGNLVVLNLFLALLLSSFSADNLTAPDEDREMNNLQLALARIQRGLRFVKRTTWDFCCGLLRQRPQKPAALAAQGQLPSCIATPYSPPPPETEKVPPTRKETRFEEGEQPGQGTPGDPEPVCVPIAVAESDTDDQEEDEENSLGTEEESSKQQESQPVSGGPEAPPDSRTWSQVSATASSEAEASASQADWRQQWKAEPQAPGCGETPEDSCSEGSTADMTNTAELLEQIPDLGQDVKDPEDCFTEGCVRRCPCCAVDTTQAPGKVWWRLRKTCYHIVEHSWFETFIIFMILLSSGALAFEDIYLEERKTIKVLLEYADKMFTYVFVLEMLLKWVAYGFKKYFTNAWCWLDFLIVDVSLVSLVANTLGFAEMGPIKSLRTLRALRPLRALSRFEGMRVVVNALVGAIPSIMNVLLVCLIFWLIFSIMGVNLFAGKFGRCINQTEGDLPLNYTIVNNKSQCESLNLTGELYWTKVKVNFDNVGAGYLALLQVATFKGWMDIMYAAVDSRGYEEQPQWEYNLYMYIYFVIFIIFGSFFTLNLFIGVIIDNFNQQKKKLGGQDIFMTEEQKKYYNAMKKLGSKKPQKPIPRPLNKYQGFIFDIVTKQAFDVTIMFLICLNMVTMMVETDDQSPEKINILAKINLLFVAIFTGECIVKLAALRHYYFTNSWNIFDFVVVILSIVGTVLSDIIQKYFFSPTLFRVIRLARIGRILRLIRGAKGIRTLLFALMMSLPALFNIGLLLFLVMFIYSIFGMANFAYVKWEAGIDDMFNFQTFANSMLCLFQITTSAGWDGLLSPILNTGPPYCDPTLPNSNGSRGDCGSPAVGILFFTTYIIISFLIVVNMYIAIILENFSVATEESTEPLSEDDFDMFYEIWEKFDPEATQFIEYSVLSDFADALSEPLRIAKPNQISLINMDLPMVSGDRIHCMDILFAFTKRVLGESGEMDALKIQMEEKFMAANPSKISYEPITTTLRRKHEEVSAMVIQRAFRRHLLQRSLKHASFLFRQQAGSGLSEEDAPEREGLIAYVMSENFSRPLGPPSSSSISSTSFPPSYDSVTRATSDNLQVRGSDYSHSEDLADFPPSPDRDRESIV", "assay": "Late INa screening assay (late sodium current, PatchXpress whole cell patch clamp)", "format": "cell-based", "details": "compound at 10 μM; read-out: Late INa % blk", "units": {"inhibition at 10 µM": "%"}, "values": [{"smiles": "CC1=C(C(=O)OCc2ccccc2)C(c2ccc(SC(F)(F)F)cc2)n2nnnc2N1", "note": "(stereo not shown) [PT-359, benzyl 5-methyl-7-(4-(trifluoromethylthio)phenyl)-4,7-dihydrotetrazolo[1,5-a]pyrimidine-6-carboxylate]", "inhibition at 10 µM": 21.3}, {"smiles": "CC1=C(C(=O)OCc2ccccc2)C(c2ccccc2-c2ccc(N3CCOCC3)cc2)n2nnnc2N1", "note": "(stereo not shown) [PT-360, benzyl 5-methyl-7-(4′-morpholinobiphenyl-2-yl)-4,7-dihydrotetrazolo[1,5-a]pyrimidine-6-carboxylate]", "inhibition at 10 µM": 7.2}, {"smiles": "CC1=C(C(=O)OCc2ccccc2)C(c2ccccc2-c2ccc([N+](=O)[O-])cc2)n2nnnc2N1", "note": "(stereo not shown) [PT-361, benzyl 5-methyl-7-(4′-nitrobiphenyl-2-yl)-4,7-dihydrotetrazolo[1,5-a]pyrimidine-6-carboxylate]", "inhibition at 10 µM": 41}, {"smiles": "CC1=C(C(=O)OCc2ccccc2)C(c2cccc3ccccc23)n2ncc(-c3ccccc3)c2N1", "note": "(stereo not shown) [PT-362, benzyl 5-methyl-7-(naphthalen-1-yl)-3-phenyl-4,7-dihydropyrazolo[1,5-a]pyrimidine-6-carboxylate]", "inhibition at 10 µM": 14.4}, {"smiles": "CC1=C(C(=O)OCc2ccccc2)C(c2cncs2)n2nnnc2N1", "note": "(stereo not shown) [PT-365, benzyl 5-methyl-7-(thiazol-5-yl)-4,7-dihydrotetrazolo[1,5-a]pyrimidine-6-carboxylate]", "inhibition at 10 µM": 26.9}, {"smiles": "CC1=C(C(=O)OCc2ccccc2)C(c2cccc3ccccc23)c2cn[nH]c2N1", "note": "(stereo not shown) [PT-367, benzyl 6-methyl-4-(naphthalen-1-yl)-4,7-dihydro-1H-pyrazolo[3,4-b]pyridine-5-carboxylate]", "inhibition at 10 µM": 16.1}, {"smiles": "CC1=C(C(=O)OCc2ccccc2)C(c2ccc3ccccc3c2)c2cn[nH]c2N1", "note": "(stereo not shown) [PT-368, benzyl 6-methyl-4-(naphthalen-2-yl)-4,7-dihydro-1H-pyrazolo[3,4-b]pyridine-5-carboxylate]", "inhibition at 10 µM": -4.2}, {"smiles": "CC1=C(C(=O)OCc2ccccc2)C(c2cccs2)c2cn[nH]c2N1", "note": "(stereo not shown) [PT-370, benzyl 6-methyl-4-(thiophen-2-yl)-4,7-dihydro-1H-pyrazolo[3,4-b]pyridine-5-carboxylate]", "inhibition at 10 µM": 24.7}, {"smiles": "CC1=C(C(=O)OCc2ccccc2)C(c2ccccc2)c2cn[nH]c2N1", "note": "(stereo not shown) [PT-372, benzyl 6-methyl-4-phenyl-4,7-dihydro-1H-pyrazolo[3,4-b]pyridine-5-carboxylate]", "inhibition at 10 µM": 20.8}, {"smiles": "CC1=C(C(=O)OCc2ccccc2)C(c2ccccc2-c2cnc(N)nc2)n2nnnc2N1", "note": "(stereo not shown) [PT-375, benzyl 7-(2-(2-aminopyrimidin-5-yl)phenyl)-5-methyl-4,7-dihydrotetrazolo[1,5-a]pyrimidine-6-carboxylate]", "inhibition at 10 µM": 50.7}, {"smiles": "CC1=C(C(=O)OCc2ccccc2)C(c2ccccc2-c2c(C)noc2C)n2nnnc2N1", "note": "(stereo not shown) [PT-376, benzyl 7-(2-(3,5-dimethylisoxazol-4-yl)phenyl)-5-methyl-4,7-dihydrotetrazolo[1,5-a]pyrimidine-6-carboxylate]", "inhibition at 10 µM": 61}, {"smiles": "CCOC(=O)c1ccc(COc2ccccc2C2C(C(=O)OCc3ccccc3)=C(C)Nc3nnnn32)cc1", "note": "(stereo not shown) [PT-377, benzyl 7-(2-(4-(ethoxycarbonyl)benzyloxy)phenyl)-5-methyl-4,7-dihydrotetrazolo[1,5-a]pyrimidine-6-carboxylate]", "inhibition at 10 µM": 30.3}, {"smiles": "COc1ccc(C2C(C(=O)OCc3ccccc3)=C(C)Nc3nnnn32)c(OCc2ccccc2)c1", "note": "(stereo not shown) [PT-380, benzyl 7-(2-(benzyloxy)-4-methoxyphenyl)-5-methyl-4,7-dihydrotetrazolo[1,5-a]pyrimidine-6-carboxylate]", "inhibition at 10 µM": 70.9}, {"smiles": "CC1=C(C(=O)OCc2ccccc2)C(c2cc(Br)ccc2OCc2ccccc2)n2nnnc2N1", "note": "(stereo not shown) [PT-381, benzyl 7-(2-(benzyloxy)-5-bromophenyl)-5-methyl-4,7-dihydrotetrazolo[1,5-a]pyrimidine-6-carboxylate]", "inhibition at 10 µM": 43.7}, {"smiles": "COc1cccc(OCc2ccccc2)c1C1C(C(=O)OCc2ccccc2)=C(C)Nc2nnnn21", "note": "(stereo not shown) [PT-382, benzyl 7-(2-(benzyloxy)-6-methoxyphenyl)-5-methyl-4,7-dihydrotetrazolo[1,5-a]pyrimidine-6-carboxylate]", "inhibition at 10 µM": 13.9}, {"smiles": "CC1=C(C(=O)OCc2ccccc2)C(c2ccccc2OCc2ccccc2)n2nnnc2N1", "note": "(stereo not shown) [PT-383, benzyl 7-(2-(benzyloxy)phenyl)-5-methyl-4,7-dihydrotetrazolo[1,5-a]pyrimidine-6-carboxylate]", "inhibition at 10 µM": 79.5}, {"smiles": "CC1=C(C(=O)OCc2ccccc2)C(c2ccc(C(F)(F)F)cc2C(F)(F)F)n2nnnc2N1", "note": "(stereo not shown) [PT-384, benzyl 7-(2,4-bis(trifluoromethyl)phenyl)-5-methyl-4,7-dihydrotetrazolo[1,5-a]pyrimidine-6-carboxylate]", "inhibition at 10 µM": 29.4}, {"smiles": "COc1ccc(C2C(C(=O)OCc3ccccc3)=C(C)Nc3nnnn32)c(OC)c1", "note": "(stereo not shown) [PT-385, benzyl 7-(2,4-dimethoxyphenyl)-5-methyl-4,7-dihydrotetrazolo[1,5-a]pyrimidine-6-carboxylate]", "inhibition at 10 µM": 56.5}, {"smiles": "CC1=C(C(=O)OCc2ccccc2)C(c2ccccc2Br)n2nnnc2N1", "note": "(stereo not shown) [PT-387, benzyl 7-(2-bromophenyl)-5-methyl-4,7-dihydrotetrazolo[1,5-a]pyrimidine-6-carboxylate]", "inhibition at 10 µM": 84.8}, {"smiles": "CC1=C(C(=O)OCc2ccccc2)C(c2ccccc2-c2ccccc2C(N)=O)n2nnnc2N1", "note": "(stereo not shown) [PT-388, benzyl 7-(2′-carbamoylbiphenyl-2-yl)-5-methyl-4,7-dihydrotetrazolo[1,5-a]pyrimidine-6-carboxylate]", "inhibition at 10 µM": 2.7}, {"smiles": "CC1=C(C(=O)OCc2ccccc2)C(c2ccccc2-c2ccccc2C#N)n2nnnc2N1", "note": "(stereo not shown) [PT-390, benzyl 7-(2′-cyanobiphenyl-2-yl)-5-methyl-4,7-dihydrotetrazolo[1,5-a]pyrimidine-6-carboxylate]", "inhibition at 10 µM": 20}, {"smiles": "CC1=C(C(=O)OCc2ccccc2)C(c2ccccc2F)n2nnnc2N1", "note": "(stereo not shown) [PT-391, benzyl 7-(2-fluorophenyl)-5-methyl-4,7-dihydrotetrazolo[1,5-a]pyrimidine-6-carboxylate]", "inhibition at 10 µM": 32.4}, {"smiles": "COc1cc(-c2nnn[nH]2)ccc1C1C(C(=O)OCc2ccccc2)=C(C)Nc2nnnn21", "note": "(stereo not shown) [PT-393, benzyl 7-(2-methoxy-4-(1H-tetrazol-5-yl)phenyl)-5-methyl-4,7-dihydrotetrazolo[1,5-a]pyrimidine-6-carboxylate]", "inhibition at 10 µM": 9.8}, {"smiles": "COc1cc([N+](=O)[O-])ccc1C1C(C(=O)OCc2ccccc2)=C(C)Nc2nnnn21", "note": "(stereo not shown) [PT-395, benzyl 7-(2-methoxy-4-nitrophenyl)-5-methyl-4,7-dihydrotetrazolo[1,5-a]pyrimidine-6-carboxylate]", "inhibition at 10 µM": 48.7}, {"smiles": "CC1=C(C(=O)OCc2ccccc2)C(c2cc(-c3ccsc3)cs2)n2nnnc2N1", "note": "(stereo not shown) [PT-398, benzyl 7-(3,3′-bithiophen-5-yl)-5-methyl-4,7-dihydrotetrazolo[1,5-a]pyrimidine-6-carboxylate]", "inhibition at 10 µM": 18.3}, {"smiles": "CC1=C(C(=O)OCc2ccccc2)C(c2ccccc2-c2cccc(N)c2)n2nnnc2N1", "note": "(stereo not shown) [PT-399, benzyl 7-(3′-aminobiphenyl-2-yl)-5-methyl-4,7-dihydrotetrazolo[1,5-a]pyrimidine-6-carboxylate]", "inhibition at 10 µM": 66.2}, {"smiles": "CC1=C(C(=O)OCc2ccccc2)C(c2occc2Br)n2nnnc2N1", "note": "(stereo not shown) [PT-400, benzyl 7-(3-bromofuran-2-yl)-5-methyl-4,7-dihydrotetrazolo[1,5-a]pyrimidine-6-carboxylate]", "inhibition at 10 µM": 53.2}, {"smiles": "CC1=C(C(=O)OCc2ccccc2)C(c2ccc(-n3ccnc3)cc2)n2nnnc2N1", "note": "(stereo not shown) [PT-402, benzyl 7-(4-(1H-imidazol-1-yl)phenyl)-5-methyl-4,7-dihydrotetrazolo[1,5-a]pyrimidine-6-carboxylate]", "inhibition at 10 µM": 18.3}, {"smiles": "CC1=C(C(=O)OCc2ccccc2)C(c2ccc(-c3nnn[nH]3)cc2)n2nnnc2N1", "note": "(stereo not shown) [PT-403, benzyl 7-(4-(1H-tetrazol-5-yl)phenyl)-5-methyl-4,7-dihydrotetrazolo[1,5-a]pyrimidine-6-carboxylate]", "inhibition at 10 µM": 9.7}, {"smiles": "CC1=C(C(=O)OCc2ccccc2)C(c2ccccc2-c2ccc(C(C)O)cc2)n2nnnc2N1", "note": "(stereo not shown) [PT-404, benzyl 7-(4′-(1-hydroxyethyl)biphenyl-2-yl)-5-methyl-4,7-dihydrotetrazolo[1,5-a]pyrimidine-6-carboxylate]", "inhibition at 10 µM": 80.9}, {"smiles": "CC1=C(C(=O)OCc2ccccc2)C(c2ccc(OCCN(C)C)cc2)n2nnnc2N1", "note": "(stereo not shown) [PT-405, benzyl 7-(4-(2-(dimethylamino)ethoxy)phenyl)-5-methyl-4,7-dihydrotetrazolo[1,5-a]pyrimidine-6-carboxylate]", "inhibition at 10 µM": 18.4}, {"smiles": "COCCOc1ccc(C2C(C(=O)OCc3ccccc3)=C(C)Nc3nnnn32)cc1", "note": "(stereo not shown) [PT-406, benzyl 7-(4-(2-methoxyethoxy)phenyl)-5-methyl-4,7-dihydrotetrazolo[1,5-a]pyrimidine-6-carboxylate]", "inhibition at 10 µM": 20.3}, {"smiles": "CC1=C(C(=O)OCc2ccccc2)C(c2ccccc2-c2ccc(OCc3ccccc3)cc2)n2nnnc2N1", "note": "(stereo not shown) [PT-407, benzyl 7-(4′-(benzyloxy)biphenyl-2-yl)-5-methyl-4,7-dihydrotetrazolo[1,5-a]pyrimidine-6-carboxylate]", "inhibition at 10 µM": 10.6}, {"smiles": "COc1cc(N(C)C)ccc1C1C(C(=O)OCc2ccccc2)=C(C)Nc2nnnn21", "note": "(stereo not shown) [PT-408, benzyl 7-(4-(dimethylamino)-2-methoxyphenyl)-5-methyl-4,7-dihydrotetrazolo[1,5-a]pyrimidine-6-carboxylate]", "inhibition at 10 µM": 30.4}, {"smiles": "CC1=C(C(=O)OCc2ccccc2)C(c2ccc(N(C)C)cc2)n2nnnc2N1", "note": "(stereo not shown) [PT-410, benzyl 7-(4-(dimethylamino)phenyl)-5-methyl-4,7-dihydrotetrazolo[1,5-a]pyrimidine-6-carboxylate]", "inhibition at 10 µM": 11.4}, {"smiles": "COC(=O)c1ccc(C2C(C(=O)OCc3ccccc3)=C(C)Nc3nnnn32)c([N+](=O)[O-])c1", "note": "(stereo not shown) [PT-411, benzyl 7-(4-(methoxycarbonyl)-2-nitrophenyl)-5-methyl-4,7-dihydrotetrazolo[1,5-a]pyrimidine-6-carboxylate]", "inhibition at 10 µM": 11.4}, {"smiles": "COC(=O)c1ccc(C2C(C(=O)OCc3ccccc3)=C(C)Nc3nnnn32)cc1", "note": "(stereo not shown) [PT-412, benzyl 7-(4-(methoxycarbonyl)phenyl)-5-methyl-4,7-dihydrotetrazolo[1,5-a]pyrimidine-6-carboxylate]", "inhibition at 10 µM": 27.6}]}]}
